Laboratory results as given in publication PMC3689883 (Journal of medicinal chemistry, 2013).

How the values were obtained:
[1] = target: AMPA receptors; conditions: read-out: Ki [3H]AMPA; rat cortical synaptosomes; ref Clausen et al 14; cited from earlier work
[2] = target: NMDA receptors; conditions: cited from earlier work
[3] = target: KA receptors; conditions: cited from earlier work; for Ki [3H]KA: rat cortical synaptosomes, ref Clausen et al 14
[4] = target: GluN1/GluN2D (Rattus norvegicus, UniProt Q62645); assay: Two-electrode voltage-clamp, Xenopus oocytes expressing GluN1/GluN2D; assay type: cell-based; conditions: EC50 GluN2A vs GluN2D
Sequence of GluN1/GluN2D (Q62645 28-1323, other chains not shown): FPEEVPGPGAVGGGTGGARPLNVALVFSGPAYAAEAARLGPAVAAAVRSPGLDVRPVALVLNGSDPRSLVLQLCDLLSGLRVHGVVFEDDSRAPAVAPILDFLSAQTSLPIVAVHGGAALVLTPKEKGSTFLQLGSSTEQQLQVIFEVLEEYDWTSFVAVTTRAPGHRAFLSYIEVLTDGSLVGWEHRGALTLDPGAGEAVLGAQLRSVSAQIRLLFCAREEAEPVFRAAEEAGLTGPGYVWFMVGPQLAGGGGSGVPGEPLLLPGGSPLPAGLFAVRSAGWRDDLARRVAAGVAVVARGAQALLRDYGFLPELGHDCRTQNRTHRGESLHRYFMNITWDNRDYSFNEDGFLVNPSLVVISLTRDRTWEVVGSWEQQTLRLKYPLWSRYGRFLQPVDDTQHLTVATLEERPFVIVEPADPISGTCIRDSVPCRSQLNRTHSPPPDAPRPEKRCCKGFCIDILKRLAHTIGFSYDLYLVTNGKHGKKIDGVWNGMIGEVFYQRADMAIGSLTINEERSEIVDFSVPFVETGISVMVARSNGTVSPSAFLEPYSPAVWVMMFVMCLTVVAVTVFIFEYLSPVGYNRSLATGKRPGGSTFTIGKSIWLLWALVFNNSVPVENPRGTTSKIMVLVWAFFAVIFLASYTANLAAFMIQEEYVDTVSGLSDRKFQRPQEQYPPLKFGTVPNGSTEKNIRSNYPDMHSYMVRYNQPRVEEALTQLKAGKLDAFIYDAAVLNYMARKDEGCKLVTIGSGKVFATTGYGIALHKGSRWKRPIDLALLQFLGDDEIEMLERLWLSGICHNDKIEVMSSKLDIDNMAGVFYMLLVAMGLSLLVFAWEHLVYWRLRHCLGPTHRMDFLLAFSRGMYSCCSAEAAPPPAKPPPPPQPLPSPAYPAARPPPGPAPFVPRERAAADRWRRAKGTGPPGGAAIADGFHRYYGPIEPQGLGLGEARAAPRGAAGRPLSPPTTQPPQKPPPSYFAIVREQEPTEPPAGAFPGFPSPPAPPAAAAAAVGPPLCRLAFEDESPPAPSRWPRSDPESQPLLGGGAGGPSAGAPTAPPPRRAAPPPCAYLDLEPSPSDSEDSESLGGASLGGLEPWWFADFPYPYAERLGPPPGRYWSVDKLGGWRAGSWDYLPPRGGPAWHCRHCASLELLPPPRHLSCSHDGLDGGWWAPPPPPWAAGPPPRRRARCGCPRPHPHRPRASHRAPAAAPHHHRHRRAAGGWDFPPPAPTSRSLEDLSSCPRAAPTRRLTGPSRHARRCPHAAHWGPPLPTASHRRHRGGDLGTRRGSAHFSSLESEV

[5] = system: AMPA receptors; assay: [3H]AMPA radioligand binding, rat cortical synaptosomes; conditions: at a concentration of 100 μM
[6] = system: KA receptors; assay: [3H]KA radioligand binding, rat cortical synaptosomes; conditions: at a concentration of 100 μM

**Q.** Which Ki [1] does the source give for `NC(C(=O)O)c1ccnn1O` (racemic) [Compound 3a, (RS)-2-(N-hydroxypyrazol-5-yl)glycine] here?
**A.** The Ki was > 100 µM.

**Q.** What about the Ki ([2]; read-out: Ki [3H]CGP39653, rat cortical synaptosomes, ref Clausen et al 14) of the same compound?
**A.** The Ki was 10 µM.

**Q.** And the “Ki [3H]KA” value [3]?
**A.** The value was >100 µM.

**Q.** Which Ki [1] does the source give for `CCCc1cnn(O)c1[C@@H](N)C(=O)O` [Compound 3b] here?
**A.** The Ki was > 100 µM.

**Q.** What about the “Ki [3H]KA” value [3] of the same compound?
**A.** The value was >100 µM.

**Q.** With `CC[C@]1(C(=O)O)C[C@H]1[C@H](N)C(=O)O.Cl` [Compound 4c, (1S,2R)-2-((S)-amino(carboxy)methyl)-1-ethylcyclopropanecarboxylic acid hydrochloride] as the compound, how does the “fold more potent at GluN2D compared to GluN2A” value [4] read?
**A.** The value was 15 fold.

**Q.** With `CCCC[C@]1(C(=O)O)C[C@H]1[C@H](N)C(=O)O.Cl` [Compound 4e, (1S,2R)-2-((S)-amino(carboxy)methyl)-1-butylcyclopropanecarboxylic acid hydrochloride] as the compound, how does the “binding to AMPA receptors” value [5] read?
**A.** The value was “not binding”.

**Q.** What about the “binding to KA receptors” value [6] of the same compound?
**A.** Its value is “not binding”.

**Q.** With `CCCC(=CC(N)C(=O)O)CP(=O)(O)O` (stereo not shown) [[^3H]CGP 39653] as the compound, how does the Kd ([2]; read-out: Kd of radioligand, radioligand used at 2 nM) read?
**A.** Its Kd is 0.006 µM.

**Q.** Which Kd ([3]; read-out: Kd of radioligand, radioligand used at 5 nM) does the source give for `C=C(C)[C@H]1CN[C@H](C(=O)O)[C@H]1CC(=O)O` [[^3H]KA, kainic acid] here?
**A.** Its Kd is 0.0056 µM.
